Data taken from US20170122958A1, “Enzymes Functional Probes” (University of Dundee, priority 2013, published 2017).

Experiments:
Assay in all cases: ITC reverse titration of protein into compound
Format in all cases: binding
Brd2(1) Leu110-Ile = Brd2(1) Leu110-Ile (Homo sapiens, UniProt P25440, L110I); set-up: Plasmids of the eight single BET bromodomain constructs Brd2(1), Brd2(2), Brd3(1), Brd3(2), Brd4(1), Brd4(2), Brdt(1) and Brdt(2); His6 (N); made in house; host or cells: E. coli BL21(DE3)
Procedure: (§1) ITC experiments were carried out on a ITC200 instrument from MicroCal™ Experiments were conducted at 3 different temperatures 15° C., 25° C. and 30° C., while stirring at 1000 rpm. Buffers of proteins, peptide and compounds were matched to 20 mM HEPES pH 7.5 at 25° C. and 100 mM NaCl. Frozen protein was buffer exchanged as described for the DSF experiments. Each titration comprised 1 initial injection of 0.4 μl lasting 0.8 s, followed by 19 injections of 2 μl lasting 4 s each at 2 min intervals. The initial injection was discarded during data analysis. Standard and reverse titrations were conducted depending on the binding partners.
(§2) Reverse titrations were conducted to test the binding of the known ligands and the novel chemical probes to the wild types and the mutants. Experiments were carried out either at 25° C. or 30° C. For strong binders, a concentration of 150-200 μM of the protein was injected into a solution of 15-20 μM compound. […] In cases where the compound was solubilized in dimethyl sulfoxide, DMSO concentration was adjusted to 1% both in the syringe and in the cell.
(§3) All the data was fitted to a single binding site model using the Microcal LLC ITC200 Origin software provided by the manufacturer to yield enthalpies of binding (ΔH) and binding constants (Kas). Further thermodynamic parameters were calculated from these values (changes in entropy ΔS, changes in free energy AG and dissociation constants (Kds)).

brd3(2)L344A = molecular target: T1, brd3(2)L344A (Homo sapiens, UniProt Q15059, L345A); conditions: 30° C.
T1 construct: Plasmids of the eight single BET bromodomain constructs Brd2(1), Brd2(2), Brd3(1), Brd3(2), Brd4(1), Brd4(2), Brdt(1) and Brdt(2); His6 (N); made in house; host or cells: E. coli BL21(DE3)
Procedure: (§4) Results obtained were very promising, showing small shifts from 1.2° C. to a maximum of 2.6° C. for all the eight BET wild types and shifts from 5.4° C. to 13.4° C. for all the leucine to alanine mutants.
(§5) For all mutants, protein was titrated at a concentration between 150-200 μM into a solution of the compound at a concentration of 15-20 μM. In the case of the wild types, protein was titrated at a concentration of 350-400 μM into a solution of the compound between 15-20 μM. FIG. 11 is an illustrative example of the curves obtained for the Brd3(1) bromodomain construct and its respective leucine to alanine mutant titrated into compound 11. We can easily observe a hyperbolic shape for the titration of wild type Brd3(1) into compound 11, corresponding to a low affinity interaction, while for Brd3(1)*(Leu070-Ala) we can easily observe a sharp sigmoidal behaviour corresponding to a high affinity interaction. Furthermore, there is a clear difference in the ΔH produced by each interaction. (ΔH=−22 kcal/mol vs. mutant compared to −7 kcal/mol vs. wild type).
as §1, §2, §3

brdt(2)L306A = molecular target: T2, brdt(2)L306A (Homo sapiens, UniProt Q58F21, L306A); conditions: 30° C.
T2 construct: Plasmids of the eight single BET bromodomain constructs Brd2(1), Brd2(2), Brd3(1), Brd3(2), Brd4(1), Brd4(2), Brdt(1) and Brdt(2); His6 (N); made in house; host or cells: E. coli BL21(DE3)
Procedure: as §4, §5, §1, §2, §3

brd4(1)L094A = molecular target: T3, brd4(1)L094A (Homo sapiens, UniProt O60885, L94A); conditions: 30° C.
T3 construct: Plasmids of the eight single BET bromodomain constructs Brd2(1), Brd2(2), Brd3(1), Brd3(2), Brd4(1), Brd4(2), Brdt(1) and Brdt(2); His6 (N); made in house; host or cells: E. coli BL21(DE3)
Procedure: as §4, §5, §1, §2, §3

brd4(2)L387A = molecular target: T4, brd4(2)L387A (Homo sapiens, UniProt O60885, L387A); conditions: 30° C.
T4 construct: Plasmids of the eight single BET bromodomain constructs Brd2(1), Brd2(2), Brd3(1), Brd3(2), Brd4(1), Brd4(2), Brdt(1) and Brdt(2); His6 (N); made in house; host or cells: E. coli BL21(DE3)
Procedure: as §4, §5, §1, §2, §3

Brd3(1)*(Leu070-Ala) = molecular target: T5, Brd3(1)*(Leu070-Ala) (Homo sapiens, UniProt Q15059, L70A); conditions: for Selectivity factor Kd WT/Kd Leu/Ala: 30° C.
T5 construct: Plasmids of the eight single BET bromodomain constructs Brd2(1), Brd2(2), Brd3(1), Brd3(2), Brd4(1), Brd4(2), Brdt(1) and Brdt(2); His6 (N); made in house; host or cells: E. coli BL21(DE3)
Procedure: as §4, §5, §1, §2, §3

brdt(1)L063A = molecular target: T6, brdt(1)L063A (Homo sapiens, UniProt Q58F21, L63A); conditions: 30° C.
T6 construct: Plasmids of the eight single BET bromodomain constructs Brd2(1), Brd2(2), Brd3(1), Brd3(2), Brd4(1), Brd4(2), Brdt(1) and Brdt(2); His6 (N); made in house; host or cells: E. coli BL21(DE3)
Procedure: as §4, §5, §1, §2, §3

Brd3(1) = molecular target: T7, Brd3(1) (Homo sapiens, UniProt Q15059); conditions: ITC 30° C., 1% DMSO
T7 construct: Plasmids of the eight single BET bromodomain constructs Brd2(1), Brd2(2), Brd3(1), Brd3(2); His6 (N); made in house; host or cells: E. coli BL21(DE3)
Procedure: as §4, §5, §1, §2, §3

T1 sequence (Q15059 306-415 L345A): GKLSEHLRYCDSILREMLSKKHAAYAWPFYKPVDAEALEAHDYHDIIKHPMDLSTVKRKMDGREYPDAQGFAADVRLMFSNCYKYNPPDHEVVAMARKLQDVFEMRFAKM
T5 sequence (Q15059 34-140 L70A): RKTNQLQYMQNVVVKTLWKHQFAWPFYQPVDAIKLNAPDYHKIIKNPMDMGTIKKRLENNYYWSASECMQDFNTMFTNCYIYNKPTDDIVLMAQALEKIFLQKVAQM
Brd2(1) Leu110-Ile, sequence (P25440 74-180 L110I limits assumed): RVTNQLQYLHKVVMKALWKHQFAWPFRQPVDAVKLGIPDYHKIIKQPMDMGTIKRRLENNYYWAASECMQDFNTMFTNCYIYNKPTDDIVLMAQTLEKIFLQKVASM
T7 sequence (Q15059 34-140 limits assumed): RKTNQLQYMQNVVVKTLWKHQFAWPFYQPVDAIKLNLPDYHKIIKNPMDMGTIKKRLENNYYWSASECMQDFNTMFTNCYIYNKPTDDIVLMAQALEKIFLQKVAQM

`COC(=O)[C@H](C)[C@@H]1N=C(c2ccc(Cl)cc2)c2cc(OC)ccc2-n2c(C)nnc21` (racemic) [Compound 7, (+−)-methyl (R)-2-((S)-6-(4-chlorophenyl)-8-methoxy-1-methyl-4H-benzo[f][1,2,4]triazolo[4,3-a][1,4]diazepin-4-yl)propanoate] showed a Kd (Brd2(1) Leu110-Ile) of 260 nM.
In the case of `CC[C@@H](C(=O)OC)[C@@H]1N=C(c2ccc(Cl)cc2)c2cc(OC)ccc2-n2c(C)nnc21` (racemic) [Compound 11, (+−)-methyl (R)-2-((S)-6-(4-chlorophenyl)-8-methoxy-1-methyl-4H-benzo[f][1,2,4]triazolo[4,3-a][1,4]diazepin-4-yl)butanoate], the “Selectivity factor Kd WT/Kd Leu/Ala” value (brd3(2)L344A; brd3(2)L344A vs WT brd2(1)) is reported as 135, the “Selectivity factor Kd WT/Kd Leu/Ala” value (brd3(2)L344A; brd3(2)L344A vs WT brd2(2)) is reported as 261 and the “Selectivity factor Kd WT/Kd Leu/Ala” value (brd3(2)L344A; brd3(2)L344A vs WT brd3(1)) is reported as 106. The “Selectivity factor Kd WT/Kd Leu/Ala” value (brd3(2)L344A; brd3(2)L344A vs WT brd3(2)) was 112, the “Selectivity factor Kd WT/Kd Leu/Ala” value (brd3(2)L344A; brd3(2)L344A vs WT brd4(1)) was 192 and the “Selectivity factor Kd WT/Kd Leu/Ala” value (brd3(2)L344A; brd3(2)L344A vs WT brd4(2)) was 152. For the same compound, the “Selectivity factor Kd WT/Kd Leu/Ala” value (brd3(2)L344A; brd3(2)L344A vs WT brdt(1)) was 130, the “Selectivity factor Kd WT/Kd Leu/Ala” value (brd3(2)L344A; brd3(2)L344A vs WT brdt(2)) was 185 and the “Selectivity factor Kd WT/Kd Leu/Ala” value (brdt(2)L306A; brdt(2)L306A vs WT brd2(1)) was 63. The “Selectivity factor Kd WT/Kd Leu/Ala” value (brdt(2)L306A; brdt(2)L306A vs WT brd2(2)) was 122, the “Selectivity factor Kd WT/Kd Leu/Ala” value (brdt(2)L306A; brdt(2)L306A vs WT brd3(1)) was 49 and the “Selectivity factor Kd WT/Kd Leu/Ala” value (brdt(2)L306A; brdt(2)L306A vs WT brd3(2)) was 52. The “Selectivity factor Kd WT/Kd Leu/Ala” value (brdt(2)L306A; brdt(2)L306A vs WT brd4(1)) was 90, the “Selectivity factor Kd WT/Kd Leu/Ala” value (brdt(2)L306A; brdt(2)L306A vs WT brd4(2)) was 71 and the “Selectivity factor Kd WT/Kd Leu/Ala” value (brdt(2)L306A; brdt(2)L306A vs WT brdt(1)) was 60. For the same compound, the “Selectivity factor Kd WT/Kd Leu/Ala” value (brdt(2)L306A; brdt(2)L306A vs WT brdt(2)) was 86, the “Selectivity factor Kd WT/Kd Leu/Ala” value (brd4(1)L094A; brd4(1)L094A vs WT brd2(1)) was 206 and the “Selectivity factor Kd WT/Kd Leu/Ala” value (brd4(1)L094A; brd4(1)L094A vs WT brd2(2)) was 396. For the same compound, the “Selectivity factor Kd WT/Kd Leu/Ala” value (brd4(1)L094A; brd4(1)L094A vs WT brd3(1)) was 160, the “Selectivity factor Kd WT/Kd Leu/Ala” value (brd4(1)L094A; brd4(1)L094A vs WT brd3(2)) was 170 and the “Selectivity factor Kd WT/Kd Leu/Ala” value (brd4(1)L094A; brd4(1)L094A vs WT brd4(1)) was 292. For the same compound, the “Selectivity factor Kd WT/Kd Leu/Ala” value (brd4(1)L094A; brd4(1)L094A vs WT brd4(2)) was 231, the “Selectivity factor Kd WT/Kd Leu/Ala” value (brd4(1)L094A; brd4(1)L094A vs WT brdt(1)) was 197 and the “Selectivity factor Kd WT/Kd Leu/Ala” value (brd4(1)L094A; brd4(1)L094A vs WT brdt(2)) was 281. For the same compound, the “Selectivity factor Kd WT/Kd Leu/Ala” value (brd4(2)L387A; brd4(2)L387A vs WT brd2(1)) was 45, the “Selectivity factor Kd WT/Kd Leu/Ala” value (brd4(2)L387A; brd4(2)L387A vs WT brd2(2)) was 88 and the “Selectivity factor Kd WT/Kd Leu/Ala” value (brd4(2)L387A; brd4(2)L387A vs WT brd3(2)) was 38. For the same compound, the “Selectivity factor Kd WT/Kd Leu/Ala” value (brd4(2)L387A; brd4(2)L387A vs WT brd4(1)) was 65, the “Selectivity factor Kd WT/Kd Leu/Ala” value (brd4(2)L387A; brd4(2)L387A vs WT brd4(2)) was 51 and the “Selectivity factor Kd WT/Kd Leu/Ala” value (brd4(2)L387A; brd4(2)L387A vs WT brdt(1)) was 44. For the same compound, the “Selectivity factor Kd WT/Kd Leu/Ala” value (brd4(2)L387A; brd4(2)L387A vs WT brdt(2)) was 62, the “ΔH Brd3(1)*(Leu070-Ala)” value (Brd3(1)*(Leu070-Ala); ITC 30° C., 1% DMSO) was -22 kcal/mol and the “Selectivity factor Kd WT/Kd Leu/Ala” value (Brd3(1)*(Leu070-Ala); brd3(1)L070A vs WT brd2(1)) was 244. For the same compound, the “Selectivity factor Kd WT/Kd Leu/Ala” value (Brd3(1)*(Leu070-Ala); brd3(1)L070A vs WT brd2(2)) was 469, the “Selectivity factor Kd WT/Kd Leu/Ala” value (Brd3(1)*(Leu070-Ala); brd3(1)L070A vs WT brd3(1)) was 190 and the “Selectivity factor Kd WT/Kd Leu/Ala” value (Brd3(1)*(Leu070-Ala); brd3(1)L070A vs WT brd3(2)) was 202. For the same compound, the “Selectivity factor Kd WT/Kd Leu/Ala” value (Brd3(1)*(Leu070-Ala); brd3(1)L070A vs WT brd4(1)) was 346, the “Selectivity factor Kd WT/Kd Leu/Ala” value (Brd3(1)*(Leu070-Ala); brd3(1)L070A vs WT brd4(2)) was 273 and the “Selectivity factor Kd WT/Kd Leu/Ala” value (Brd3(1)*(Leu070-Ala); brd3(1)L070A vs WT brdt(1)) was 233. The “Selectivity factor Kd WT/Kd Leu/Ala” value (Brd3(1)*(Leu070-Ala); brd3(1)L070A vs WT brdt(2)) was 332, the “Selectivity factor Kd WT/Kd Leu/Ala” value (brdt(1)L063A; brdt(1)L063A vs WT brd2(1)) was 48 and the “Selectivity factor Kd WT/Kd Leu/Ala” value (brdt(1)L063A; brdt(1)L063A vs WT brd2(2)) was 92. The “Selectivity factor Kd WT/Kd Leu/Ala” value (brdt(1)L063A; brdt(1)L063A vs WT brd3(1)) was 37, the “Selectivity factor Kd WT/Kd Leu/Ala” value (brdt(1)L063A; brdt(1)L063A vs WT brd3(2)) was 40 and the “Selectivity factor Kd WT/Kd Leu/Ala” value (brdt(1)L063A; brdt(1)L063A vs WT brd4(1)) was 67. The “Selectivity factor Kd WT/Kd Leu/Ala” value (brdt(1)L063A; brdt(1)L063A vs WT brd4(2)) was 54, the “Selectivity factor Kd WT/Kd Leu/Ala” value (brdt(1)L063A; brdt(1)L063A vs WT brdt(1)) was 46 and the “Selectivity factor Kd WT/Kd Leu/Ala” value (brdt(1)L063A; brdt(1)L063A vs WT brdt(2)) was 65. The “ΔH wild type Brd3(1)” value (Brd3(1)) was -7 kcal/mol.
